Laboratory results taken from patent US8680155B2, “Synthesis and antitumor activity of novel bis(benzylidene-benzenamine)disulfides” (Kaohsiung Medical University, priority 2011, dated 2014).

What was measured:
A375 = experiment: MTT survival, A375 melanoma; assay type: cell-based, human; conditions: A375, 10 μM
Procedure: (§1) Next, in vitro cytotoxicity of the multiple compounds in various cell lines was evaluated, which also was performed using MTT colorimetric assay. […] Comparing breast cancer cells MCF-7 with other cancer cells, most selected compounds had higher inhibition activity to MCF-7 cells. Therefore, breast cancer cells MCF-7 were chosen to be the research target in the following experiments.

MCF-7 = experiment: MTT survival, MCF-7 breast cancer; assay type: cell-based, human; conditions: MCF-7, 10 μM
Procedure: as §1

Ca-922 = experiment: MTT survival, Ca-922 oral cancer; assay type: cell-based, human; conditions: Ca-922, 10 μM
Procedure: as §1

293T = experiment: MTT survival, 293T kidney cancer; assay type: cell-based, human
Procedure: as §1

A549 = experiment: MTT survival, A549 lung cancer; assay type: cell-based, human; conditions: A549, 10 μM
Procedure: as §1

Cal-27 = experiment: MTT survival, Cal-27 oral cancer; assay type: cell-based, human; conditions: Cal-27, 10 μM
Procedure: as §1

[1] = test system: breast cancer cells MCF-7; experiment: Cell cycle analysis by flow cytometry (PI staining); assay type: cell-based, human; conditions: MCF-7, 5 μM, 24 hours; control 11.54%
Procedure: This experiment was performed by treating breast cancer cells MCF-7 with compounds, and then cell cycle was analyzed using flow cytometry known by the skilled person in the art. Firstly, breast cancer cells MCF-7 were treated with the prepared compounds (5 μM) for 24 hours and stained with propidium iodide (PI). Approximately 10000 cells from each sample were analyzed with FACScan flow cytometer and software. […] The sub-G1 DNA Peaks for compounds 4, 5, 7, 18, 21, 23 and 24 were 20.64%, 17.92%, 26.22%, 11.95%, 19.85%, 4.35% and 33.89% respectively (data not shown), while the sub-G1 DNA peak for control (without any drug treatment) was 11.54%.

A2058 = experiment: MTT survival, A2058 melanoma; assay type: cell-based, human; conditions: A2058, 10 μM
Procedure: as §1

H1335 = experiment: MTT survival, H1335 lung cancer; assay type: cell-based, human; conditions: H1335, 10 μM
Procedure: as §1

MALME-3M = experiment: MTT cytotoxicity, MALME-3M melanoma; assay type: cell-based
Procedure: (§2) For confirming the cytotoxicity of bis(benzylidene-benzenamine)disulfides of the invention on various cancer cells, the well known MTT (3-(4,5-dimethylthiazol-2-yl)-2,5-diphenyltetrazolium bromide) colorimetric assay in this art was performed, and the method was not detailedly described herein. Please refer to Table 3, compound 12 was selected from compounds 1 to 24 to proceed cytotoxicity experiment.

SK-MEL-5 = experiment: MTT cytotoxicity, SK-MEL-5 melanoma; assay type: cell-based; conditions: SK-MEL-5, MTT
Procedure: as §2

[2] = test system: selected cancer cell lines; experiment: MTT cytotoxicity, mean over cancer cell lines; assay type: cell-based; conditions: read-out: mean 50% growth inhibition (GI50)
Procedure: as §2

IGROV1 = experiment: MTT cytotoxicity, IGROV1 ovarian cancer; assay type: cell-based
Procedure: as §2

LOX MVI = experiment: MTT cytotoxicity, LOX MVI melanoma; assay type: cell-based
Procedure: as §2

NCI-H226 = experiment: MTT cytotoxicity, NCI-H226 non-small cell lung cancer; assay type: cell-based
Procedure: as §2

HOP-92 = experiment: MTT cytotoxicity, HOP-92 non-small cell lung cancer; assay type: cell-based; conditions: HOP-92, MTT
Procedure: as §2

T-47D = experiment: MTT cytotoxicity, T-47D breast cancer; assay type: cell-based
Procedure: as §2

SNB-75 = experiment: MTT cytotoxicity, SNB-75 central nervous system cancer; assay type: cell-based; conditions: SNB-75, MTT
Procedure: as §2

HCT-15 = experiment: MTT cytotoxicity, HCT-15 colon cancer; assay type: cell-based; conditions: HCT-15, MTT
Procedure: as §2

Row | SMILES | Survival (% control) of compound (10 μM) (A375) | Survival (% control) of compound (10 μM) (MCF-7) | Survival (% control) of compound (10 μM) (Ca-922) | Survival (% control) of compound (10 μM) (293T) | Survival (% control) of compound (10 μM) (A549) | Survival (% control) of compound (10 μM) (Cal-27) | sub-G1 DNA peak [1] | Survival (% control) of compound (10 μM) (A2058) | Survival (% control) of compound (10 μM) (H1335) | GI50 (MALME-3M) | GI50 (SK-MEL-5) | GI50 [2] | GI50 (IGROV1) | GI50 (LOX MVI) | GI50 (NCI-H226) | GI50 (HOP-92) | GI50 (T-47D) | GI50 (SNB-75) | GI50 (HCT-15)
1 | Cc1ccc([N+](=O)[O-])cc1N=C(SSC(=Nc1cc([N+](=O)[O-])ccc1C)c1ccc(F)cc1)c1ccc(F)cc1 [Compound 21] | 81.1 ± 0.10 % control | 13.8 ± 0.60 % control | 66.7 ± 0.13 % control | 32.8 ± 0.52 % control | 62.1 ± 0.12 % control | 76.6 ± 0.20 % control | 19.85% | 76.3 ± 0.15 % control | 80.6 ± 0.08 % control |  |  |  |  |  |  |  |  |  | 
2 | Cc1cc(C(=Nc2ccccc2)SSC(=Nc2ccccc2)c2ccc([N+](=O)[O-])c(C)c2)ccc1[N+](=O)[O-] [Compound 1] | 90.3 ± 0.05 % control |  | 80.8 ± 0.08 % control | 76.5 ± 0.19 % control | 71.5 ± 0.09 % control | 100.9 ± 0.09 % control |  |  | 69.8 ± 0.13 % control |  |  |  |  |  |  |  |  |  | 
3 | Cc1cc([N+](=O)[O-])ccc1N=C(SSC(=Nc1ccc([N+](=O)[O-])cc1C)c1ccc(C(F)(F)F)cc1)c1ccc(C(F)(F)F)cc1 [Compound 12] |  |  |  |  |  |  |  |  |  | 252 nM | 262 nM | 372 nM | 217 nM | 304 nM | 427 nM | 175 nM | 221 nM | 141 nM | 388 nM
4 | Cc1c(N=C(SSC(=Nc2cccc([N+](=O)[O-])c2C)c2ccc(F)cc2)c2ccc(F)cc2)cccc1[N+](=O)[O-] [Compound 18] | 91.5 ± 0.04 % control | 33.1 ± 0.47 % control | 79.4 ± 0.09 % control | 71.1 ± 0.23 % control | 75.5 ± 0.08 % control | 94.9 ± 0.07 % control | 11.95% | 95.9 ± 0.02 % control | 70.0 ± 0.13 % control |  |  |  |  |  |  |  |  |  | 
5 | Cc1ccc(N=C(SSC(=Nc2ccc(C)c([N+](=O)[O-])c2)c2ccc(C(F)(F)F)cc2)c2ccc(C(F)(F)F)cc2)cc1[N+](=O)[O-] [Compound 17] | 103.2 ± 0.02 % control |  | 82.1 ± 0.07 % control | 75.3 ± 0.21 % control | 76.9 ± 0.07 % control | 107.1 ± 0.08 % control |  |  | 81.4 ± 0.08 % control |  |  |  |  |  |  |  |  |  | 
